Source: ChEMBL document CHEMBL5104182, “Design and Synthesis of a 2-Amino-pyridine Derivative as a Potent CDK8 Inhibitor for Anti-colorectal Cancer Therapy” (J Med Chem, 2022)
Active and inactive are the calls of the source. No cut-off for these calls is given here.

What was measured:
[1] = Toxicity in ICR mouse assessed as kidney damage at 1000 mg/kg, using gastric tube by H&E staining assay; format: organism-based; details: in vivo, po, route ig
Homo sapiens = species: Homo sapiens; assay: Selectivity ratio of IC50 for human CDK6 to IC50 for human CDK8
CT26 [2] = assay: Anticancer activity against mouse CT26 cells transplanted in […] mouse assessed as reduction in tumor volume at 10 to 40 mg/kg, po daily measured after 21 days; format: functional, organism-based; details: dose 10-40 mg/kg, time 21.0 day
CT26 [3] = assay: Antiproliferative activity against […] cells assessed as cell viability incubated for 48 hrs by MTT assay; format: functional; details: Mus musculus
[4] = Toxicity in Balb/c mouse assessed as ALT level in serum at 1000 mg/kg, using gastric tube; format: organism-based; details: in vivo, po, route ig
HCT-116 [5] = assay: Decrease in CTD phosphorylation in human HCT-116 cells at 1 to 4 uM incubated for 48 hrs by western blotting analysis; format: functional, cell-based; details: dose 1-4 µM
[6] = Half life in Sprague-Dawley rat at 10 mg/kg, po upto 24 hrs by HPLC analysis; format: ADME, organism-based; details: in vivo
HCT-116 [7] = assay: Induction of cell cycle arrest in human HCT-116 cells assessed as decrease in p-Rb S780 level incubated for 24 hrs by Western blot analysis; format: functional, cell-based
HCT-116 [8] = assay: Reduction in P-gp expression in sorafenib-resistant human HCT-116 cells by Western blot analysis; format: functional, cell-based; details: dose 1-4 µM, DDE = dose-dependent effect
HCT-116 [9] = assay: Decrease in beta-catenin/TCF combination expression in human HCT-116 cells transfected with TOPFLASH at 1 to 4 uM incubated for 24 hrs by luciferase assay; format: functional, cell-based; details: dose 1-4 µM
[10] = biological target: T1, Cyclin-dependent kinase 8 (Homo sapiens, UniProt P49336); assay: Binding affinity to CDK8 in human HCT-116 cells assessed as increase in degradation temperature of protein by CETSA (reference value: 49 degC); format: cell-based
[11] = biological target: T1, Cyclin-dependent kinase 8; assay: Inhibition of CDK8 in human HCT-116 cells assessed as inhibition of STAT1 phosphorylation at Ser727 by Western blot analysis; format: cell-based
HCT-116 [12] = assay: Decrease in TCF1 expression in human HCT-116 cells at 1 to 4 uM incubated for 48 hrs by western blotting analysis; format: functional, cell-based; details: dose 1-4 µM
[13] = MRT in Sprague-Dawley rat at 10 mg/kg, po upto 24 hrs by HPLC analysis; format: ADME, organism-based; details: in vivo

T1 sequence (P49336 whole entry): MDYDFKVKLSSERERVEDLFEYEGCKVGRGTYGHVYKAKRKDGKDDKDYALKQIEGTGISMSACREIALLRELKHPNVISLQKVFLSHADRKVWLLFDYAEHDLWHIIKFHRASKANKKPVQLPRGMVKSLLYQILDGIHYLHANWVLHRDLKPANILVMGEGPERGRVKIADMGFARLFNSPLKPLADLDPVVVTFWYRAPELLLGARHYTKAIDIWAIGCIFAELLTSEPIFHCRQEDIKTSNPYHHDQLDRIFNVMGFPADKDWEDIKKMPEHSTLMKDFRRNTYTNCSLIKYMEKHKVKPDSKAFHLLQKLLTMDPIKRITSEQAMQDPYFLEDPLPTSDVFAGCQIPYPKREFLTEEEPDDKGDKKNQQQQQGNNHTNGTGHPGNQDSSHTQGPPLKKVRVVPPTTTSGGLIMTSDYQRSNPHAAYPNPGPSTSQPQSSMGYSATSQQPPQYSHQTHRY

Ratio IC50 (Homo sapiens): 2 | GI50 (CT26 [3]): 5.5 µM | half-life [6]: 1.1 h | Tm [10]: 55 °C | inhibition [11]: Active | MRT [13]: 1.6 h
Structure (SMILES): Nc1ccc(Oc2ccc(NC(=O)Nc3cccc(C(F)(F)F)c3)cc2)cn1
Activity [1]: Non-Toxic | Activity (CT26 [2]): Active | Activity [4]: Non-Toxic | Activity (HCT-116 [5]): Active | Activity (HCT-116 [7]): Active | Activity (HCT-116 [8]): Dde | Activity (HCT-116 [9]): Active | Activity (HCT-116 [12]): Active
